Test results taken from patent US7393827B2, “Pharmaceutical compositions and methods for restoring β-cell mass and function” (Diakine Therapeutics, Inc., priority 2004, dated 2008).
“Also recorded” adds a separate entry of the source. Where no end group is shown, it is not given here.

Tests used:
[1] = tested on: non-obese diabetic (NOD) mice; assay: Reversal of established diabetes in NOD mice, blood glucose monitoring, 28-day osmotic mini-pump; assay type: in vivo, mouse; conditions: LSF 27 mg/kg/day, Ex-4 18 nM/day
Method: FIG. 4 depicts average levels of blood glucose in 4 NOD mice groups treated with saline (control), Ex-4 alone, LSF alone and LSF and Ex-4 combined, respectively.
Pre-diabetic non-obese diabetic (NOD) mice were monitored until two consecutive blood glucose readings within a week were above 250 mg/dL. This indicated the animals had already become diabetic. At this point a mini-osmotic pump was filled with one of the following and implanted subcutaneously: • Normal saline (control) • Ex-4 • LSF • Ex-4 and LSF
Blood glucose levels in these mice were monitored, and a small dose of insulin was administered to the hyperglycemic mice to maintain euglycemia for the first few days. The pump was removed after 28 days, discontinuing treatment with the drug; however, the blood glucose levels were continually monitored for several more weeks. These mice were then sacrificed, and slide sections were prepared from their pancreases to evaluated histology and insulin staining (Example 5) and evidence for growth the new beta cells (Example 6).
These NOD were spontaneously diabetic between 20-25 weeks of age. The control groups include normal saline, LSF alone (27 mg/kg/day) and Ex-4 alone (18 nM/day). […] Four mice were in each group. Diabetes reversal was seen within 2-3 days after implantation of LSF/Ex-4 pumps, while hyperglycemia was controlled 10-12 days after LSF alone pump therapy.

[2] = tested on: mouse islets; assay: MTT assay of cell metabolism and mitochondrial function in isolated islets; assay type: cell-based; conditions: LSF 50 μM, Ex-4 20 nM
Method: FIG. 3 depicts the effect of mitochondrial metabolism (as reflected by level of MTT metabolite) observed in isolated mouse islets after individual and combined treatment with LSF and Ex-4.
(§1) For in vitro studies (Examples 1-3), freshly isolated BALB/c pancreatic islets were incubated at 37° C. with either LSF (50 μM) alone, Ex-4 (20 nM) alone, or with LSF/Ex-4 combined. After 3 days of culture, islets were treated with or without pro-inflammatory cytokines (10 ng/mL IL-1β, 20 ng/mL TNF-α, and 100 ng/mL IFN-γ) overnight. Insulin secretion was measured in low and high glucose using a standard elisa method for mouse insulin. Apoptotic islets were quantitatively assessed. MTT assay was used to evaluate cell metabolism and mitochondrial function.
We previously published, in murine β-cell lines and human islets that both ATP production and mitochondrial metabolism (MTT metabolite levels) were increased by LSF treatment.

[3] = tested on: BALB/c pancreatic islets; assay: Insulin secretion of isolated islets in low and high glucose (EIA/ELISA); assay type: cell-based, mouse; conditions: 3 days culture, LSF 50 μM, Ex-4 20 nM, 3 mM then 28 mM glucose, one-hour incubation
Method: FIG. 1 depicts the amount of insulin in the supernate sample as determined by EIA after one-hour incubation with each of 3 mM and subsequent 28 mM glucose medium.
as §1
(See FIG. 1 in which “*” and “^” indicate P<0.005 compared to “none” treatment group).

[4] = tested on: human islets; conditions: previously published; cited from earlier work
[5] = tested on: NOD mouse pancreatic sections; assay: Brdu staining of NOD mouse pancreatic sections (cell proliferation in vivo); conditions: diabetic NOD mice treated 28 days via mini-pumps; Brdu 50 mg/kg I.P., tissue 24 hours later
Method: FIG. 6 depicts results of Brdu staining of NOD mouse pancreatic sections treated with saline (control), Ex-4 alone, LSF alone and LSF and Ex-4 combined, respectively.
Ex-4/LSF-associated cell proliferation in vivo was evaluated. Diabetic NOD mice that were treated with Ex-4 alone, Ex-4 plus LSF, LSF alone and normal saline for 28 days via mini-pumps were injected with Brdu (50 mg/kg) I.P. 24 hours later, pancreatic tissues were collected and stained with an anti-Brdu antibody.

[6] = tested on: mouse islets exposed to pro-inflammatory cytokines (IL-1β, TNF-α, IFN-γ); assay: Apoptosis of mouse islets exposed to pro-inflammatory cytokines; assay type: cell-based; conditions: LSF 50 μM, Ex-4 20 nM; 10 ng/mL IL-1β, 20 ng/mL TNF-α, 100 ng/mL IFN-γ overnight
Method: FIG. 2 depicts the effect in apoptosis reduction in isolated mouse islets after individual and combined treatment of LSF and Ex-4 in vitro.
as §1
Cellular death (apoptosis) was quantified using an established method in mouse islets exposed to pro-inflammatory cytokines.

[7] = tested on: murine β-cell lines; conditions: previously published; cited from earlier work
[8] = tested on: overt diabetic NOD (Non-Obese Diabetic) mice; conditions: previously overt diabetic NOD mice; literature study; cited from earlier work

| Compound | time after pump implantation until diabetes reversal / hyperglycemia controlled ([1]; diabetic NOD mice, S.C. mini-pump) | diabetes reversal / control of hyperglycemia during pump therapy ([1]; newly diagnosed diabetic NOD mice, S.C. osmotic mini-pump, 28 days) | mitochondrial metabolism (MTT metabolite level) [2] | insulin release upon glucose stimulation [3] | ATP production and mitochondrial metabolism (MTT metabolite levels) [4] | Brdu-positive cells in pancreatic tissue [5] | protection of islet cells from pro-inflammatory cytokines [6] | ATP production and mitochondrial metabolism (MTT metabolite levels) [7] | effect on hyperglycemia [8] |
| --- | --- | --- | --- | --- | --- | --- | --- | --- | --- |
| C[C@@H](O)CCCCn1c(=O)c2c(ncn2C)n(C)c1=O [LSF, Lisofylline] | 10 to 12 days | moderate ability to control blood glucose levels; also recorded: prevented worsening of hyperglycemia | increase mitochondrial metabolism | increase insulin release | increased | detected | could protect isolated islet cells | increased | – |
| glucagon-like peptide-1 (HAEGTFTSDVSSYLEGQAAKEFIAWLVKGR; ends and bridges not checked; UniProt P01275 98-127, looked up) [GLP-1, "incretin synthesized in the small and large intestine by the L-type cells ... released in response to food ingestion"] | – | – | – | – | – | – | – | – | no effect |
